{"source": "patent US20190077856A1", "about": "“METHOD OF TREATING DISEASES USING KINASE MODULATORS” (Memorial Sloan Kettering Cancer Center, priority 2016, published 2019)", "key": {"TPC1 [1]": {"system": "TPC1", "assay": "Binding of TCR mimic antibody ESK and ADCC (chromium release) with ESK-M", "format": "cell-based, human", "description": "FIG. 18A-FIG. 18B: AST487 increased cytolytic activity of TCRm antibody. FIG. 18A: TPC1 cells were treated with different doses of AST487 and binding of ESK (a TCR mimic monoclonal antibody specific for the WT1 RMF peptide/HLA-A02:01 complex) was measured. FIG. 18B: With increase of ESK binding in vitro, the effect on cytolytic activity of ESK was measured with an ADCC assay. TPC1 cells were treated with AST487 or DMSO for 72 hours and then incubated with chromium. Peripheral blood mononuclear cells (PBMCs), chromium labeled target cells, and ESK-M (or an isotype) were mixed and incubated for 5 hours. Varying effector to target ratios were used. Afterwards, chromium levels in the media were measured to determine percent specific lysis.\nFor FIG. 18A, TPC1 cells were treated with different doses of AST487 and binding of ESK (a TCR mimic monoclonal antibody specific for the WT1 RMF peptide/HLA-A02:01 complex) was measured. For FIG. 18B, with increase of ESK binding in vitro, the effect on cytolytic activity of ESK was measured with an antibody-dependent cell-mediated cytotoxicity (ADCC) assay. TPC1 cells were treated with AST487 or DMSO for 72 hours and then incubated with chromium. PBMCs, chromium labeled target cells, and ESK-M (or an isotype) were mixed and incubated for 5 hours. […] Afterwards, chromium levels in the media were measured to determine percent specific lysis."}, "TPC1 [2]": {"system": "TPC1", "assay": "qPCR of transcript levels of HLA and antigen processing machinery", "format": "cell-based, human", "conditions": "24 or 48 hours", "description": "Using qPCR, transcript levels of HLA and antigen processing machinery were measured after TPC1 cells were treated with AST487 for 24 (FIG. 17A) or 48 hours (FIG. 17B). Upregulation of mRNA levels for HLA and antigen processing machinery were seen.\nReal-Time PCR: Total RNA was extracted using Qiagen RNA Easy Plus (Qiagen; #74134) after cells were treated for 48 hrs with indicated inhibitor. RNA was converted into cDNA using gScript™ cDNA SuperMix (Quanta Biosciences Gaithersburg, Md. USA). Real-time assays were conducted using TaqMan real-time probes. (Life Technlogies) for human HLA-A (Hs01058806_gl), B2M (Hs00187842_ml), TAP1 (Hs00388677_ml), TAP2 (Hs00241060_ml), and TBP (Hs00427620_ml) using 50 ng cDNA. For assessment of gene expression using RT-PCR PerfeCTa® FastMix® II (Quanta), reactions were carried out in triplicates using standard thermocycling conditions (2 minutes at 50° C., 10 minutes at 95° C., 40 cycles of 15 seconds at 95° C., and 1 minute at 60° C.). TBP was used as internal control and ΔΔCT method was used for relative mRNA calculations.\nNext, using qPCR, transcript levels of HLA and antigen processing machinery were measured after TPC1 cells were treated with AST487 for 24 (FIG. 17, left panel) or 48 hours (FIG. 17, right panel). Upregulation of mRNA levels for HLA and antigen processing machinery were seen."}, "pRET and pERK": {"system": "pRET and pERK", "assay": "Western blot for pRET and pERK after 24 hours", "format": "cell-based, human", "conditions": "TPC1", "description": "(§1) FIG. 14A-FIG. 14C: TPC1 (a papillary thyroid cancer cell line) treated with AST487 increased HLA surface expression. FIG. 14A and FIG. 14B: TPC1 cells were seeded and treated with different doses of AST487 (a RET inhibitor). After 72 hours, cells were harvested and surface HLA-A02 and HLA-ABC were measured through flow cytometry with BB7 and W6/32 staining antibodies, respectively. FIG. 14C: After 24 hours of AST487 incubation, cells were lysed and a western blot was performed to show a decrease in pRET and pERK with AST487 treatment.\n(§2) The effect of AST487, a RET inhibitor, on TPC1 (a papillary thyroid cancer cell line) was investigated. TPC1 cells were seeded and treated with different doses of AST487. After 72 hours, cells were harvested and surface HLA-A02 and HLA-ABC were measured through flow cytometry with BB7 and W6/32 staining antibodies, respectively (FIG. 14A-FIG. 14B)."}, "TPC1 cells": {"system": "TPC1 cells", "assay": "In vivo treatment of subcutaneous TPC1 tumors, flow cytometry of tumor cells", "parameters": "species or system NRG mice", "conditions": "7 days of treatment", "description": "FIG. 19A-FIG. 19B: AST487 treatment in vivo increased surface HLA expression levels. FIG. 19A: NRG mice were injected with TPC1 cells and treated with vehicle (control) or AST487. BB7 and W6/32 binding on TPC1 cells were measured, and are shown in FIG. 19A (normalized to vehicle-treated mice) for vehicle-treated, 10 mg/kg AST487-treated, and 35 mg/kg AST487-treated mice. […] PD-L1 levels were measured as binding to anti-PD-L1 antibody.\nNRG mice (Jackson labs NOD-Rag 1 null IL2rgnull, NOD rag gamma) were injected with TPC1 cells subcutaneously, and then treated 4 weeks later with vehicle (phosphate buffered saline) or with AST487 (a RET inhibitor) at a dose of 10 mg/kg or 35 mg/kg. After 7 days of treatment, tumors were harvested, and tumor cells were assessed for binding to BB7 (a monoclonal antibody specific to HLA-A02) and binding to W6/32 (a monoclonal antibody specific to pan HLA-ABC). Tumor cells were GFP-labeled and were distinguished from stroma and normal cells by gating for GFP in flow cytometry. […] One mouse in the vehicle control group was excluded as an outlier with 99% confidence interval as determined by Q test. PD-L1 expression by the tumor was also assessed by measuring binding of anti-PD-L1 antibody."}, "TPC1 [3]": {"system": "TPC1", "assay": "Surface HLA-A02 and HLA-ABC by flow cytometry (BB7, W6/32) after 72 hours", "format": "cell-based, human", "conditions": "different doses", "description": "as §1, §2"}, "TT cells": {"system": "TT cells", "assay": "Surface HLA-A02 and HLA-ABC by flow cytometry (BB7, W6/32) after 72 hours", "format": "cell-based, human", "conditions": "different doses", "description": "FIG. 15A and FIG. 15B: TT cells were seeded and treated with different doses of AST487 (a RET inhibitor). After 72 hours, cells were harvested and surface HLA-A02 and HLA-ABC were measured through flow cytometry with BB7 and W6/32 staining antibodies, respectively. FIG. 15C: After 24 hours of AST487 incubation, cells were lysed and a western blot was performed. TT cells are derived from a medullary thyroid cancer that has a RET point mutation, as opposed to the TPC1 cells, which are derived from a papillary thyroid cancer and have a RET/PTC1 fusion.\nThe same analysis was performed in TT cells (a medullary thyroid cancer cell line). TT cells are derived from a medullary thyroid cancer that has a RET point mutation, as opposed to TPC1 cells, which are derived from a papillary thyroid cancer and have a RET/PTC1 fusion. TT cells were seeded and treated with different doses of AST487. After 72 hours, cells were harvested and surface HLA-A02 and HLA-ABC were measured through flow cytometry with BB7 and W6/32 staining antibodies, respectively (FIG. 15A-FIG. 15B). After 24 hours of AST487 incubation, cells were lysed and a western blot was performed (FIG. 15C)."}}}
{"smiles": "CCN1CCN(Cc2ccc(NC(=O)Nc3ccc(Oc4cc(NC)ncn4)cc3)cc2C(F)(F)F)CC1", "note": "[AST487, 1-[4-[(4-ethylpiperazin-1-yl)methyl]-3-(trifluoromethyl)phenyl]-3-[4-[6-(methylamino)pyrimidin-4-yl]oxyphenyl]urea]", "values": [{"measurement": "cytolytic activity of TCRm antibody (ADCC, ESK-M)", "setting": "TPC1 [1]; 72 hours AST487, then PBMCs and ESK-M 5 hours", "value": "increased"}, {"measurement": "ESK binding", "setting": "TPC1 [1]; different doses", "value": "increase"}, {"measurement": "mRNA levels for HLA and antigen processing machinery", "setting": "TPC1 [2]", "value": "Upregulation"}, {"measurement": "pRET and pERK", "setting": "pRET and pERK", "value": "decrease"}, {"measurement": "HLA-A02 expression (BB7 binding) on the surface of the tumor cells", "setting": "TPC1 cells; 10 mg/kg or 35 mg/kg", "value": "increased"}, {"measurement": "pan HLA-ABC expression (W6/32 binding) on the surface of the tumor cells", "setting": "TPC1 cells; 10 mg/kg or 35 mg/kg", "value": "increased"}, {"measurement": "expression of PD-L1 by the tumor", "setting": "TPC1 cells; anti-PD-L1 antibody binding", "value": "did not change"}, {"measurement": "HLA class I surface expression", "setting": "TPC1 [3]", "value": "increased"}, {"measurement": "surface HLA-A", "setting": "TT cells", "value": "upregulated"}]}
